The values below come from article PMC3390344, “Antibacterial Activity and Mechanism of a Scorpion Venom Peptide Derivative In Vitro and In Vivo” (PLoS ONE, 2012).

Holding throughout (format): cell-based
One test relates to S. aureus AB94004. The test can be described thus: Enzyme release assay (catalase). The following applies: S. aureus AB94004, 37°C; 0.9% saline negative control; Figure 4C. As for the experimental part:
(§1) Figure 4 Secondary structure and enzyme release assay of Kn2-7. (A) and (B) Secondary structure analysis of the Kn2-7 and BmKn2 peptides. (A) Circular dichroism spectra of 0.1 mg/mL of Kn2-7 in water, 30% TFE/H2O or 70% TFE/H2O. (B) Circular dichroism spectra of 0.1 mg/mL of BmKn2 in water, 30% TFE/H2O or 70% TFE/H2O. (C) and (D) Enzyme release assay. (C) S. aureus AB94004 treated with Kn2-7 or BmKn2 was harvested, and the catalase activities of the supernatants were measured; 0.9% saline was used as the negative control, and ampicillin sodium was used as the antibiotic control. (D) E. coli AB94012 treated with Kn2-7 or BmKn2 was harvested, and the catalase activities in the supernatants were measured; 0.9% saline was used as the negative control, and kanamycin was used as the antibiotic control.
(§2) Bacterial suspensions and serial-diluted peptides were mixed at a ratio of 4∶1 in different tubes with a final volume of 2 ml. The mixtures were then incubated at 37°C with continuous shaking. At each time point, 200 µl of the treated bacterial suspension was transferred to sterilized tubes. After centrifugation, the supernatants were transferred to a sterilized 1.5-ml tube, and catalase activity was measured with a Catalase Assay Kit (Beyotime, Jiangsu, China) using the method for measuring peroxidase activity.

For test [1], the system named is methicillin-resistant S. aureus (MRSA) P1374. The test can be described thus: microbe, parasite or virus in culture. As for the experimental part:
(§3) Clinical isolates were obtained from the 302nd military hospital of Beijing, China, including penicillin-resistant S. aureus (PRSA) P1383, penicillin-resistant S. epidermidis (PRSE) P1389, methicillin-resistant S. aureus (MRSA) P1381, P1386 and P1374, methicillin-resistant coagulase-negative Staphylococcus (MRCNS) P1369, and penicillin-sensitive S. epidermidis (PSSE) P1111.
(§4) The MIC was determined via a microdilution assay in 96-well microtiter plates according to the broth microdilution guideline of Clinical and Laboratory Standards Institute (CLSI).

For test [2], the system named is methicillin-resistant S. aureus (MRSA) P1381. The test can be described thus: microbe, parasite or virus in culture. The method, then:
as §3, §4

Test [3] relates to methicillin-resistant S. aureus (MRSA) P1386. In words: microbe, parasite or virus in culture. As for the experimental part: as §3, §4
In test [4] the test system is penicillin-resistant S. aureus (PRSA) P1383. The test can be described thus: microbe, parasite or virus in culture. The method, then: as §3, §4
The subject of test [5] is penicillin-resistant S. epidermidis (PRSE) P1389. In words: microbe, parasite or virus in culture. As for the experimental part: as §3, §4
For test [6], the system named is penicillin-sensitive S. epidermidis (PSSE) P1111. In words: microbe, parasite or virus in culture. As for the experimental part: as §3, §4
Test [7] deals with methicillin-resistant coagulase-negative Staphylococcus (MRCNS) P1369. In words: microbe, parasite or virus in culture. The following applies: Staphylococcus. As for the experimental part:
as §4

For test [8], the system named is E. coli AB94012. In words: Growth inhibitory assay (growth curves). The note with it: at a concentration of 6.25 µg/mL; Figure 2C. The method, then:
Figure 2 Gowth inhibitory activities of Kn2-7. (A) Growth curves of S. aureus AB94004 treated with Kn2-7, BmKn2 or antibiotics. (B) Growth curves of MRSA P1386 treated with Kn2-7, BmKn2 or antibiotics. (C) Growth curves of E. coli AB94012 treated with Kn2-7, BmKn2 or antibiotics.
The time growth curves of S. aureus and MRSA treated with BmKn2 or its derivatives were determined based on measurements taken at 630 nm at each time point. Different concentrations of peptide were added to the tested strains, which were cultured in 96-well plates using the same method as was used for determining the MIC.

Test [9] concerns E. coli AB94012. The test can be described thus: Enzyme release assay (catalase). The following applies: E. coli AB94012, 37°C; 0.9% saline negative control; Figure 4D. As for the experimental part:
as §1, §2

Where [10] appears, read: Staphylococcus epidermidis, read-out: MIC.

Converted amounts (≈) assume the structure as drawn. Read-outs that look alike come from different tables or passages of the source.

On to `CC1(C)S[C@@H]2[C@H](NC(=O)[C@H](N)c3ccccc3)C(=O)N2[C@H]1C(=O)O` [ampicillin, reference compound], for which the “Catalase activity of the supernatant over time” value in the test on S. aureus AB94004 was “increasing catalase activity over time”.
As for Penicillin, the MIC in [1] (P1374, methicillin resistant (MRSA) clinical isolate, repeated at least three times) is 5000 µg/mL; in test [2] (P1381, methicillin resistant (MRSA) clinical isolate, repeated at least three times) it was 5000 µg/mL; in [3] (P1386, methicillin resistant (MRSA) clinical isolate, repeated at least three times), 10000 µg/mL; in [4] (P1383, penicillin resistant (PRSA) clinical isolate, repeated at least three times), 10000 µg/mL; in [5] (P1389, penicillin resistant (PRSE) clinical isolate, repeated at least three times), 10000 µg/mL; in [6] (P1111, penicillin sensitive (PSSE) clinical isolate, repeated at least three times) it was 25 µg/mL.
On to `CN[C@H](CC(C)C)C(=O)N[C@H]1C(=O)N[C@@H](CC(N)=O)C(=O)N[C@H]2C(=O)N[C@H]3C(=O)N[C@H](C(=O)N[C@H](C(=O)O)c4cc(O)cc(O)c4-c4cc3ccc4O)[C@H](O)c3ccc(c(Cl)c3)Oc3cc2cc(c3O[C@@H]2O[C@H](CO)[C@@H](O)[C@H](O)[C@H]2O[C@H]2C[C@](C)(N)[C@H](O)[C@H](C)O2)Oc2ccc(cc2Cl)[C@H]1O` [Vancomycin], for which the MIC in test [7] was 6.25 µg/mL (≈ 4.31 µM); in [1] (Staphylococcus aureus, MRSA), 6.25 µg/mL (≈ 4.31 µM); in test [2] (Staphylococcus aureus, MRSA), 3.13 µg/mL (≈ 2.16 µM); in [3] (Staphylococcus aureus, MRSA), 3.13 µg/mL (≈ 2.16 µM); in test [4] (Staphylococcus aureus), 6.25 µg/mL (≈ 4.31 µM); in test [5] (Staphylococcus epidermidis), 6.25 µg/mL (≈ 4.31 µM). Moreover, in test [6] (setting [10]), the MIC stood at 3.13 µg/mL (≈ 2.16 µM).
Consider `CO/N=C(\C(=O)N[C@@H]1C(=O)N2C(C(=O)O)=C(COC(C)=O)CS[C@H]12)c1csc(N)n1` [Cefotaxime], for which the MIC in test [7] amounted to 400 µg/mL (≈ 878 µM); in [1] (Staphylococcus aureus, MRSA), 400 µg/mL (≈ 878 µM); in test [2] (Staphylococcus aureus, MRSA), 400 µg/mL (≈ 878 µM); in test [3] (Staphylococcus aureus, MRSA), 100 µg/mL (≈ 220 µM); in [4] (Staphylococcus aureus), 6.25 µg/mL (≈ 13.7 µM); in test [5] (Staphylococcus epidermidis), 3.13 µg/mL (≈ 6.87 µM). The MIC in [6] (setting [10]) was determined as 6.25 µg/mL (≈ 13.7 µM).
For `NC[C@H]1O[C@H](O[C@H]2[C@H](O)[C@@H](O[C@H]3O[C@H](CO)[C@@H](O)[C@H](N)[C@H]3O)[C@H](N)C[C@@H]2N)[C@H](O)[C@@H](O)[C@@H]1O` [kanamycin, reference compound], the “Growth inhibition of E. coli AB94012 (growth curve)” value in the test with E. coli AB94012 [8] is reported as “inhibited the growth of E. coli AB94012”. Also, the “Catalase activity of the supernatant over time” value in the test with E. coli AB94012 [9] is on record as “increasing catalase activity over time”.
